Reference: publication PMC3480714 (Nature chemical biology, 2012)

Biological target: T1, CobL (Rhodobacter capsulatus, UniProt D5AV04)
T1 sequence (D5AV04 214-396): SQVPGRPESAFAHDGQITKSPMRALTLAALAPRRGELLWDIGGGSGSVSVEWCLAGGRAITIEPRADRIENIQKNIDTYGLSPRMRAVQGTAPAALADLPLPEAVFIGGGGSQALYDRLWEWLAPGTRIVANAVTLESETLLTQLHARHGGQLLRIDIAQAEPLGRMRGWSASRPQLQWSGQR
Experiment: X-ray crystal structure at […] Å
Format: binding

Nc1ncnc2c1ncn2[C@@H]1O[C@H](CSCC[C@H](N)C(=O)O)[C@@H](O)[C@H]1O [SAH]
X-ray crystal structure at 2.7 Å: The SAM binding site of the CobL^C subunit showing SAH bound at the C-terminal end of the Rossmann-like
